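1) Cells in 96-well plates. 2) Compound, 48 h, 5 concentrations. 3) Linear interpolation between surrounding doses. 4) Unreached endpoint = highest concentration. GI50 marks 50% less growth. TGI: total growth inhibition.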
Experiments:
Assay in all cases: NCI-60 cell line screen, 48 h; in the data active = GI50 below about 0.43 µM; inactive = the rest
NCI-H23 lung = tested on: NCI-H23 lung
SK-OV-3 ovarian = tested on: SK-OV-3 ovarian
OVCAR-5 ovarian = tested on: OVCAR-5 ovarian
EKVX NSCLC = tested on: EKVX NSCLC
SF-295 CNS = tested on: SF-295 CNS
COLO 205 colon = tested on: COLO 205 colon
NCI-H226 lung = tested on: NCI-H226 lung
SN12C renal = tested on: SN12C renal
SF-539 CNS = tested on: SF-539 CNS
PC-3 prostate = tested on: PC-3 prostate
DU-145 prostate = tested on: DU-145 prostate
SK-MEL-2 melanoma = tested on: SK-MEL-2 melanoma
SNB-19 CNS = tested on: SNB-19 CNS
UACC-257 melanoma = tested on: UACC-257 melanoma
TK-10 renal = tested on: TK-10 renal
HT29 colon = tested on: HT29 colon
HL-60(TB) leukemia = tested on: HL-60(TB) leukemia
OVCAR-8 ovarian = tested on: OVCAR-8 ovarian
SR leukemia = tested on: SR leukemia
MOLT-4 leukemia = tested on: MOLT-4 leukemia
HS 578T breast = tested on: HS 578T breast
NCI-H522 lung = tested on: NCI-H522 lung
HOP-62 NSCLC = tested on: HOP-62 NSCLC
UO-31 renal = tested on: UO-31 renal
RPMI-8226 leukemia = tested on: RPMI-8226 leukemia
MDA-MB-435 = tested on: MDA-MB-435
UACC-62 melanoma = tested on: UACC-62 melanoma
OVCAR-4 ovarian = tested on: OVCAR-4 ovarian
A549 NSCLC = tested on: A549 NSCLC
CAKI-1 renal = tested on: CAKI-1 renal
SK-MEL-5 melanoma = tested on: SK-MEL-5 melanoma
MALME-3M melanoma = tested on: MALME-3M melanoma
CCRF-CEM leukemia = tested on: CCRF-CEM leukemia
SF-268 CNS = tested on: SF-268 CNS
MDA-MB-231 breast = tested on: MDA-MB-231 breast
SK-MEL-28 melanoma = tested on: SK-MEL-28 melanoma
K-562 leukemia = tested on: K-562 leukemia
KM12 colon = tested on: KM12 colon
HOP-92 NSCLC = tested on: HOP-92 NSCLC
RXF 393 renal = tested on: RXF 393 renal
LOX IMVI melanoma = tested on: LOX IMVI melanoma
ACHN renal = tested on: ACHN renal
T-47D breast = tested on: T-47D breast
IGROV1 ovarian = tested on: IGROV1 ovarian
A498 renal = tested on: A498 renal
SNB-75 CNS = tested on: SNB-75 CNS
HCC-2998 colon = tested on: HCC-2998 colon

O=C(/C=C/c1ccccc1Cl)c1nc2ccccc2n1Cc1ccc(F)cc1
7.72 µM: TGI (SK-MEL-28 melanoma)
5.35 µM: TGI (RXF 393 renal)
55.8 µM: TGI (HCC-2998 colon)
70 µM: TGI (SNB-19 CNS)
11.2 µM: TGI (UO-31 renal)
62.8 µM: TGI (HOP-92 NSCLC)
17.9 µM: TGI (UACC-62 melanoma)
3.23 µM: TGI (LOX IMVI melanoma)
58.6 µM: TGI (HS 578T breast)
5.92 µM: TGI (MDA-MB-435)
5.67 µM: TGI (SF-539 CNS)
70.2 µM: TGI (MALME-3M melanoma)
> 100 µM: TGI (NCI-H23 lung) | TGI (SK-OV-3 ovarian) | TGI (EKVX NSCLC) | TGI (COLO 205 colon) | TGI (NCI-H226 lung) | TGI (SN12C renal) | TGI (PC-3 prostate) | TGI (DU-145 prostate) | TGI (SK-MEL-2 melanoma) | TGI (UACC-257 melanoma) | TGI (TK-10 renal) | TGI (HT29 colon) | TGI (HL-60(TB) leukemia) | TGI (OVCAR-8 ovarian) | TGI (SR leukemia) | TGI (MOLT-4 leukemia) | TGI (NCI-H522 lung) | TGI (RPMI-8226 leukemia) | TGI (OVCAR-4 ovarian) | TGI (A549 NSCLC) | TGI (CAKI-1 renal) | TGI (SK-MEL-5 melanoma) | TGI (CCRF-CEM leukemia) | TGI (SF-268 CNS) | TGI (K-562 leukemia) | TGI (KM12 colon) | TGI (ACHN renal) | TGI (T-47D breast) | TGI (IGROV1 ovarian) | TGI (A498 renal) | TGI (SNB-75 CNS)
inactive: GI50 (NCI-H23 lung) 4.25 µM | GI50 (SK-OV-3 ovarian) 32.5 µM | GI50 (OVCAR-5 ovarian) 3.76 µM | GI50 (EKVX NSCLC) 6.44 µM | GI50 (SF-295 CNS) 5.01 µM | GI50 (COLO 205 colon) 4.01 µM | GI50 (NCI-H226 lung) 25.4 µM | GI50 (SN12C renal) 20.1 µM | GI50 (SF-539 CNS) 2.33 µM | GI50 (PC-3 prostate) 4.45 µM | GI50 (DU-145 prostate) 4.61 µM | GI50 (SK-MEL-2 melanoma) 13.4 µM | GI50 (SNB-19 CNS) 3.99 µM | GI50 (UACC-257 melanoma) 8.88 µM | GI50 (TK-10 renal) 6.22 µM | GI50 (HT29 colon) 3.64 µM | GI50 (HL-60(TB) leukemia) 2.51 µM | GI50 (OVCAR-8 ovarian) 3.25 µM | GI50 (SR leukemia) 2.87 µM | GI50 (MOLT-4 leukemia) 3.04 µM | GI50 (HS 578T breast) 4.51 µM | GI50 (NCI-H522 lung) 4.49 µM | GI50 (HOP-62 NSCLC) 5.03 µM | GI50 (UO-31 renal) 2.58 µM | GI50 (RPMI-8226 leukemia) 2.97 µM | GI50 (MDA-MB-435) 2.37 µM | GI50 (UACC-62 melanoma) 3.42 µM | GI50 (OVCAR-4 ovarian) 23 µM | GI50 (A549 NSCLC) 8.06 µM | GI50 (CAKI-1 renal) 3.47 µM | GI50 (SK-MEL-5 melanoma) 5.23 µM | GI50 (MALME-3M melanoma) 8.22 µM | GI50 (CCRF-CEM leukemia) 2.45 µM | GI50 (SF-268 CNS) 8.56 µM | GI50 (MDA-MB-231 breast) 2.59 µM | GI50 (SK-MEL-28 melanoma) 2.75 µM | GI50 (K-562 leukemia) 3.3 µM | GI50 (KM12 colon) 3.34 µM | GI50 (HOP-92 NSCLC) 16.4 µM | GI50 (RXF 393 renal) 2.06 µM | GI50 (LOX IMVI melanoma) 1.65 µM | GI50 (ACHN renal) 5.23 µM | GI50 (T-47D breast) 3.44 µM | GI50 (IGROV1 ovarian) 3.33 µM | GI50 (A498 renal) 61.8 µM | GI50 (SNB-75 CNS) 3.3 µM | GI50 (HCC-2998 colon) 3.16 µM
6.68 µM: TGI (MDA-MB-231 breast)
41.9 µM: TGI (HOP-62 NSCLC)
25.1 µM: TGI (SF-295 CNS)
73.1 µM: TGI (OVCAR-5 ovarian)

From PubChem BioAssay (NCI)
